Test results: patent publication US20220324835A1 (Nurix Therapeutics, Inc., priority 2018, published 2022)
Like-named read-outs stand apart in the source and are kept apart here.

Legend:
[1] = tested on: T-cell; assay: IL-2 secretion from T-cells stimulated with anti-CD3 antibody alone (Biological Example 2); assay type: cell-based, human; settings: T-cell, read-out: IL-2 secretion Anti-CD3 stimulation; for fold induction at 1 µM: 1 μM Cbl-b inhibitor; for fold induction at 8 µM: 8 μM Cbl-b inhibitor
[2] = biological target: T1, Cbl-b (Homo sapiens, UniProt Q13191); assay: Cbl-b activity assay (Cbl-b inhibition assay), TR-FRET of Cbl-b interaction with UbcH5B-Ub; assay type: biochemical; settings: assay buffer with 100 mM NaCl, 60 nM Src kinase; read-out: Cbl-b activity IC50
Outline: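 Compound-treated Cbl-b was incubated 1.5 h with Src kinase (60 nM final; 30 nM for asterisked values, which also used 50 mM instead of 100 mM NaCl), 1 mM ATP and 5 mM MgCl2. Binding to fluorescent Ub-loaded UbcH5B (C85K mutant) was then read by TR-FRET after 1 h more.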

[3] = biological target: T1, Cbl-b; assay: Cbl-b inhibition assay (Cbl-b activity assay, FRET, Biological Example 1; 100 mM NaCl, 60 nM Src kinase); assay type: biochemical; settings: upper bound stated in text lists; read-out: IC50 values in the Cbl-b inhibition assay of Biological Example 1
Outline: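 Inhibitor activity is measured as reduced terbium-to-fluorescein FRET between streptavidin-terbium on biotinylated Cbl-b and Bodipy-fluorescein ubiquitin carried by an irreversible UbcH5B-Ub conjugate, binding of which depends on Src phosphorylation of Cbl-b.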

[4] = tested on: T-cell; assay: CD25 cell surface staining on T-cells co-stimulated with anti-CD3 and anti-CD28 antibody (Biological Example 2); assay type: cell-based, human; settings: Homo sapiens, T-cell, read-out: CD25 staining Anti-CD3/Anti-CD28 stimulation; for fold induction at 0.3 µM: 0.3 μM Cbl-b inhibitor; for fold induction at 1 µM: 1 μM Cbl-b inhibitor; for fold induction at 4 µM: 4 μM Cbl-b inhibitor
Outline: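 Values are fold-change over baseline: readings (IL-2 release, CD25 staining) from inhibitor-treated T-cells divided against untreated cells […]. No detailed procedure stated.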

[5] = tested on: T-cell; assay: CD25 cell surface staining on T-cells stimulated with anti-CD3 antibody alone (Biological Example 2); assay type: cell-based, human; settings: T-cell, read-out: CD25 staining Anti-CD3 stimulation; for fold induction at 1 µM: 1 μM Cbl-b inhibitor; for fold induction at 8 µM: 8 μM Cbl-b inhibitor
[6] = fold change over baseline, primary human total T-cells
[7] = Homo sapiens, fold change over baseline (anti-CD3/anti-CD28 stimulated T-cells without inhibitor)
[8] = fold change over baseline (anti-CD3/anti-CD28 stimulated T-cells without inhibitor)

T1 sequence (Q13191 36-427): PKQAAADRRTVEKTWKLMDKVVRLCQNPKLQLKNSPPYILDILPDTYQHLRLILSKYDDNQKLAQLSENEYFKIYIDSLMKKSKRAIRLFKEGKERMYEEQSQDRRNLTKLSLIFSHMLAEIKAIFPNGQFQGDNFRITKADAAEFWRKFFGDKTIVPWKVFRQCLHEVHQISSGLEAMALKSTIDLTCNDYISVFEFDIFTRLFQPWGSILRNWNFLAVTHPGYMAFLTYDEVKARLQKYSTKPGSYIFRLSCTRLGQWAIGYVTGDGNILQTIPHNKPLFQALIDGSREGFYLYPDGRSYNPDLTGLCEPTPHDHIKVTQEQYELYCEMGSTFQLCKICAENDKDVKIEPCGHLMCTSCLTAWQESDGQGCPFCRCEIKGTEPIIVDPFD

| Structure (SMILES) | fold induction at 1 µM [1, 6] | fold induction at 8 µM [1, 6] | IC50 [2] | IC50 [3] | fold induction at 0.3 µM [4, 6] | fold induction at 1 µM [4, 6] | fold induction at 4 µM [4, 6] | fold induction at 1 µM [5, 6] | fold induction at 8 µM [5, 6] | fold induction at 1 µM [1, 7] | fold induction at 0.3 µM [4, 8] | fold induction at 1 µM [4, 8] | fold induction at 1 µM [5, 7] |
| --- | --- | --- | --- | --- | --- | --- | --- | --- | --- | --- | --- | --- | --- |
| C[C@H](Cc1nncn1C)c1cccc(NC(=O)c2cc(C(C)(C)O)cc(C(F)(F)F)n2)c1 [Compound 320, 4-(2-hydroxypropan-2-yl)-N-[3-[(2R)-1-(4-methyl-4H-1,2,4-triazol-3-yl)propan-2-yl]phenyl]-6-(trifluoromethyl)pyridine-2-carboxamide] | 0.101 to 0.15 | > 0.201 | 0.1 to 0.3 µM | ≤ 0.3 µM | 1.01 to 1.3 | 1.01 to 1.3 | 1.01 to 1.3 | 0.801 to 1 | > 1 | – | – | – | – |
| C[C@@H]1CN(Cc2cc3c(c(C(F)(F)F)c2)CN(c2cccc(C4(Cc5nncn5C)COC4)c2)C3=O)CCO1 [Example 663b, (R)-2-(3-(3-((4-methyl-4H-1,2,4-triazol-3-yl)methyl)oxetan-3-yl)phenyl)-6-((2-methylmorpholino)methyl)-4-(trifluoromethyl)isoindolin-1-one] | – | – | < 0.1 µM | ≤ 0.1 µM | – | – | – | – | – | > 0.201 | 1.31 to 1.5 | 1.31 to 1.5 | > 1 |
| CCOc1cc([C@H](C)Cc2nncn2C)cc(N2Cc3c(cccc3C(F)(F)F)C2=O)n1 [Compound 358, (R)-2-(6-ethoxy-4-(1-(4-methyl-4H-1,2,4-triazol-3-yl)propan-2-yl)pyridin-2-yl)-4-(trifluoromethyl)isoindolin-1-one] | 0.151 to 0.2 | > 0.201 | < 0.1 µM | ≤ 0.1 µM | 1.01 to 1.3 | 1.31 to 1.5 | 1.31 to 1.5 | > 1 | > 1 | – | – | – | – |
| C[C@H](Cc1nncn1C)c1cccc(NC(=O)c2ccc(CO)c(C3CC3)n2)c1 [Compound 203, 6-cyclopropyl-5-(hydroxymethyl)-N-[3-[(2R)-1-(4-methyl-4H-1,2,4-triazol-3-yl)propan-2-yl]phenyl]pyridine-2-carboxamide] | > 0.201 | > 0.201 | < 0.1 µM | ≤ 0.1 µM | 1.31 to 1.5 | 1.51 to 1.75 | 1.51 to 1.75 | > 1 | > 1 | – | – | – | – |
